{"source": "patent US20200338144A1", "about": "“AGENT FOR PREVENTING OR TREATING SMALL INTESTINAL INJURY INDUCED BY NON-STEROIDAL ANTI-INFLAMMATORY DRUG AND PROTON PUMP INHIBITOR” (priority 2017, published 2020)", "tested_on": "small intestinal injury induced by an NSAID and a PPI", "assay": "Test 1: rate of change of hematocrit values in rats given an NSAID and a PPI", "format": "in vivo, Wister male rats", "conditions": "bacteria 1×10^9 cfu/animal oral once a day", "procedure": "Frozen stocks of the following bacterial strains were statically cultured in GAM broth at 37° C. for 24 hours: the Bifidobacterium bifidum G9-1 strain (B. bifidum G9-1) (Accession No. NITE BP-817), the Bifidobacterium longum reference strain JCM 1217^T (B. longum JCM 1217) (purchased from Japan Collection of Microorganisms (JCM), RIKEN BioResource Research Center), the Bifidobacterium infantis reference strain JCM 1222^T (B. infantis JCM 1222) (purchased from JCM), the Bifidobacterium adolescentis reference strain JCM 1275^T (B. adolescentis JCM 1275) (purchased from JCM), and the Bifidobacterium dentium reference strain JCM 1195^T (B. dentium JCM 1195) (purchased from JCM). Each of the bacterial liquid cultures was inoculated into fresh GAM broth at a ratio (by volume) of liquid culture to GAM broth of 1:100, and statically cultured at 37° C. for 24 hours. […]\nThe centrifuged bacterial cells were suspended in 0.75 mL of physiological saline. […] The colonies appeared on the plates were counted, and the number of viable bacteria was calculated based on the dilution factor. […]\nAt the start of the experiments, the blood was collected from the tail vein with hematocrit capillary tubes (Thermo Fisher Scientific K.K.) to measure hematocrit values. […] After grouping, the body weight of the animals was measured for nine days, and one of the PPIs (10 mg/kg) was intraperitoneally administered twice a day. […]", "data": [{"substance": "Bifidobacterium longum", "values": [{"measurement": "inhibitory effect on small intestinal injury (hematocrit reduction) induced by ibuprofen and lansoprazole", "setting": "ibuprofen 10 mg/kg oral + lansoprazole 10 mg/kg i.p. twice a day, FIG. 7", "value": "higher inhibitory effect"}, {"measurement": "inhibitory effect on small intestinal injury (hematocrit reduction) induced by ibuprofen and omeprazole", "setting": "ibuprofen 10 mg/kg oral + omeprazole 10 mg/kg i.p. twice a day, FIG. 4 (n=5)", "value": "higher inhibitory effect"}]}]}
